Measured values taken from patent US5464551A, “Stabilized phosphate ester-based functional fluid compositions” (Monsanto Company, priority 1993, dated 1995).

What was measured:
[1] = in vivo
[2] = in vivo; remark: listed apart in the source
Hen = conditions: in vivo
in vivo [3] = conditions: po
in vivo [4] = conditions: topical or ocular
in vivo [5] = conditions: chicken
Mouse = assay: Genotoxicity: mouse micronucleus; conditions: in vivo
[6] = sample as named; W samples fresh

Structure (SMILES) | Eye Irritation [1] | Skin Irritation [2] | Subchronic Bladder Hyperplasia, level in rats (Bladder) [ppm] | NOEL, subchronic bladder hyperplasia (Bladder; rats) [ppm] | Subchronic Bladder Hyperplasia, observation (Bladder; rats) | Hen Neurotox (Hen) | Ames (Ames) | LD50 (in vivo [3]) [mg/kg] | LD50 (in vivo [4]) [mg/kg] | LD50 (in vivo [5]) [mg/kg] | Mouse micronucleus (Mouse) | Independent Lab Cond. [6] [μMHO/cm]
CC(C)COP(=O)(OCC(C)C)OCC(C)C [TIBP, triisobutyl phosphate] | Practically non-irritating | Moderately irritating | > 5000 | 5000 | None observed | Not neurotoxic | negative | > 5000 | > 5000 | > 5000 | negative | –
CCCCOP(=O)(OCCCC)Oc1ccccc1 [DBPP, dibutyl phenyl phosphate] | – | – | – | – | – | – | – | – | – | – | – | 0.008
